Measured values: patent US20240254119A1 (THIRD HARMONIC BIO, INC., priority 2022, published 2024)

These compounds were tested against T1, wtKIT (Homo sapiens, UniProt P10721) (assay: HTRF biochemical assay, wtKIT (phosphorylation of a peptide substrate)). Settings: Table 4.
T1 construct: 1888289AM in the reaction mixtures
How it was run: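 wtKIT (5.0 nM) phosphorylating 1 µM FAM-labelled peptide with 400 µM ATP and 10 mM MnCl2 in 100 mM HEPES pH 7.5, 1% DMSO, 3 h at 25 °C. EDTA quench; phosphopeptide detected with anti-phosphotyrosine antibody by HTRF. Enzyme titrated for 10-20% substrate conversion.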

T1 sequence (P10721 26-976): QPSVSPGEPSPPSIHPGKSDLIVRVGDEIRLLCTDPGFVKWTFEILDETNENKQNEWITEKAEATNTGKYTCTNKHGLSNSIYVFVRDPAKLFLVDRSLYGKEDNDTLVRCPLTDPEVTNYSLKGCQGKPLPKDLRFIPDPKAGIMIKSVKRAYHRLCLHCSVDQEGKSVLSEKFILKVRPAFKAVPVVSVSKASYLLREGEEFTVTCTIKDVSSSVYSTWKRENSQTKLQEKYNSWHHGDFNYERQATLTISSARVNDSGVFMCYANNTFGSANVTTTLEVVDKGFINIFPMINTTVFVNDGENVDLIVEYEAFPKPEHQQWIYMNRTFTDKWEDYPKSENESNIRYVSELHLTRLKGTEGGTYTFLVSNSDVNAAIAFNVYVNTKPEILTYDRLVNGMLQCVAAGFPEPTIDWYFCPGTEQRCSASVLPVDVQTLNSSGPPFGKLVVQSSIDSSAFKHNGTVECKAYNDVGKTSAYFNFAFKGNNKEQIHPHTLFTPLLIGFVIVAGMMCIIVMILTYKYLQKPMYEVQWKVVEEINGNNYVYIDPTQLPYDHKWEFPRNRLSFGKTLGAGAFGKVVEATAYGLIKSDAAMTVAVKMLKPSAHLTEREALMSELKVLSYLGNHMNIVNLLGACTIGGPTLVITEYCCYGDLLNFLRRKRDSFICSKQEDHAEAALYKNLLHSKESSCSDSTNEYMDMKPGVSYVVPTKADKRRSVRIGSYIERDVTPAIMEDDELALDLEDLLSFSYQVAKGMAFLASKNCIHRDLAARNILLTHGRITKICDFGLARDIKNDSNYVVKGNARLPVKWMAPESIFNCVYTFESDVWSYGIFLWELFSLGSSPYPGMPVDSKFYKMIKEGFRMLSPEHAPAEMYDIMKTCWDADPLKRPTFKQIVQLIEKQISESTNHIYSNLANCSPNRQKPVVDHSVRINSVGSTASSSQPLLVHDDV

IC50 [nM]	Structure (SMILES)
50 to 500	COCc1ccn2c(C(=O)Nc3cc(-c4ncon4)ccc3C)cnc2c1 [Compound I-677]
50 to 500	Cc1ccc(-c2ncon2)cc1NC(=O)c1cnc2cc(N3CCCCC3)ccn12 [Compound I-712]
≤ 50	COc1ccn2c(C(=O)Nc3cc(-c4noc(N5CC(F)(F)C5)n4)ccc3C)cnc2c1 [Compound I-603, N-(5-(5-(3,3-difluoroazetidin-1-yl)-1,2,4-oxadiazol-3-yl)-2-methylphenyl)-7-methoxyimidazo[1,2-a]pyridine-3-carboxamide]
≤ 50	CCc1nc(-c2ccc(C)c(NC(=O)c3cnc4cc(OC)ccn34)c2)no1 [Compound I-737]
≤ 50	CCOc1ccn2c(C(=O)Nc3cc(-c4noc(C[C@H](O)C(F)F)n4)ccc3C)cnc2c1 [Compound I-566, (S)—N-(5-(5-(3,3-difluoro-2-hydroxypropyl)-1,2,4-oxadiazol-3-yl)-2-methylphenyl)-7-ethoxyimidazo[1,2-a]pyridine-3-carboxamide]
500 to 5000	COc1ccn2c(C(=O)Nc3cc(-c4noc(-c5ccccc5)n4)ccc3C)cnc2c1 [Compound I-743]
≤ 50	CCC(O)Cc1nc(-c2ccc(C)c(NC(=O)c3cnc4ccccn34)c2)no1 (stereo not shown) [Compound I-526]
≤ 50	Cc1ccc(-c2noc([C@H]3C[C@@H]3F)n2)cc1NC(=O)c1cnc2cc(-c3cscn3)ccn12 [Compound I-547, N-(5-(5-((1R,2S)-2-fluorocyclopropyl)-1,2,4-oxadiazol-3-yl)-2-methylphenyl)-7-(thiazol-4-yl)imidazo[1,2-a]pyridine-3-carboxamide]
≤ 50	COc1ccn2c(C(=O)Nc3cc(-c4noc(-c5cccnc5)n4)ccc3C)cnc2c1 [Compound I-745]
≤ 50	Cc1nc(-c2ccc(C)c(NC(=O)c3cnn4cc(-c5cscn5)ccc34)c2)no1 [Compound I-559, N-(2-methyl-5-(5-methyl-1,2,4-oxadiazol-3-yl)phenyl)-6-(thiazol-4-yl)pyrazolo[1,5-a]pyridine-3-carboxamide]
≤ 50	COc1ccn2c(C(=O)Nc3cc(-c4noc(C)n4)ccc3C)cnc2c1 [Compound I-533, 7-methoxy-N-(2-methyl-5-(5-methyl-1,2,4-oxadiazol-3-yl)phenyl)imidazo[1,2-a]pyridine-3-carboxamide]
≤ 50	Cc1ccn2c(C(=O)Nc3cc(-c4noc(-c5ccccc5)n4)ccc3C)cnc2c1 [Compound I-736]
≤ 50	Cc1ccc(-c2noc([C@H]3C[C@@H]3F)n2)cc1NC(=O)c1cnn2ccc(C(F)F)cc12 [Compound I-494, 5-(difluoromethyl)-N-(5-(5-((1R,2S)-2-fluorocyclopropyl)-1,2,4-oxadiazol-3-yl)-2-methylphenyl)pyrazolo[1,5-a]pyridine-3-carboxamide]
50 to 500	Cc1ccc(-c2noc([C@H]3C[C@@H]3F)n2)cc1NC(=O)c1cnc2cc(C(C)(C)CO)ccn12 [Compound I-464]
≤ 50	CCc1nc(-c2ccc(C)c(NC(=O)c3cnc4cc(COC)ccn34)c2)no1 [Compound I-734]
≤ 50	Cc1ccc(-c2noc([C@H]3C[C@@H]3F)n2)cc1NC(=O)c1cnc2cc(-c3ccn(C)n3)ccn12 [Compound I-529, N-(5-(5-((1R,2S)-2-fluorocyclopropyl)-1,2,4-oxadiazol-3-yl)-2-methylphenyl)-7-(1-methyl-1H-pyrazol-3-yl)imidazo[1,2-a]pyridine-3-carboxamide]
≤ 50	Cc1ccc(-c2noc(C[C@H](O)C(F)F)n2)cc1NC(=O)c1cnc2ccc(-c3ccn(C)n3)cn12 [Compound I-562, (S)—N-(5-(5-(3,3-difluoro-2-hydroxypropyl)-1,2,4-oxadiazol-3-yl)-2-methylphenyl)-6-(1-methyl-1H-pyrazol-3-yl)imidazo[1,2-a]pyridine-3-carboxamide]
50 to 500	Cc1ccc(-c2noc([C@H]3C[C@@H]3F)n2)cc1NC(=O)c1cnc2cc(CC(C)(C)O)ccn12 [Compound I-460]
500 to 5000	Cc1ccc(-c2noc([C@H]3C[C@@H](N)C3)n2)cc1NC(=O)c1cnc2cc(Cl)ccn12 [Compound I-623]
≤ 50	Cc1nc(-c2ccc(C)c(NC(=O)c3cnc4cc(-c5ccn(C)n5)ccn34)c2)no1 [Compound I-530, 7-(1-methyl-1H-pyrazol-3-yl)-N-(2-methyl-5-(5-methyl-1,2,4-oxadiazol-3-yl)phenyl)imidazo[1,2-a]pyridine-3-carboxamide]
50 to 500	Cc1ccc(-c2noc(-c3cccnc3)n2)cc1NC(=O)c1cnc2cc(COCCO)ccn12 [Compound I-708]
5000 to 30000	CNCC(O)Cc1nc(-c2ccc(C)c(NC(=O)c3cnc4ccccn34)c2)no1 (stereo not shown) [Compound I-557]
500 to 5000	Cc1nc(-c2ccc(C)c(NC(=O)c3cnc4cc(C5CCNC5=O)ccn34)c2)no1 (stereo not shown) [Compound I-448]

IC50 [nM]	Structure (SMILES)
500 to 5000	Cc1ccc(-c2ncon2)cc1NC(=O)c1cnc2cc(F)ccn12 [Compound I-744]
≤ 50	Cc1ccc(-c2noc([C@H]3C[C@@H]3F)n2)cc1NC(=O)c1cnc2cc(COCC(=O)O)ccn12 [Compound I-477, 2-((3-((5-(5-((1R,2S)-2-fluorocyclopropyl)-1,2,4-oxadiazol-3-yl)-2-methylphenyl)carbamoyl)imidazo[1,2-a]pyridin-7-yl)methoxy)acetic acid]
≤ 50	Cc1ccc(-c2ncon2)cc1NC(=O)c1cnc2cc(N(C)C)ccn12 [Compound I-718]
≤ 50	Cc1ccc(-c2noc(N3CC(F)(F)C3)n2)cc1NC(=O)c1cnc2cc(OCCCN3CCCC3)ccn12 [Compound I-631, N-(5-(5-(3,3-difluoroazetidin-1-yl)-1,2,4-oxadiazol-3-yl)-2-methylphenyl)-7-(3-(pyrrolidin-1-yl)propoxy)imidazo[1,2-a]pyridine-3-carboxamide]
50 to 500	Cc1ccc(-c2noc([C@H]3C[C@@H]3F)n2)cc1NC(=O)c1cnn2cccc(F)c12 [Compound I-487]
≤ 50	Cc1ccc(-c2noc(C[C@H](O)C(F)F)n2)cc1NC(=O)c1cnc2cc(COCc3c[nH]cn3)ccn12 [Compound I-585, (S)-7-(((1H-imidazol-4-yl)methoxy)methyl)-N-(5-(5-(3,3-difluoro-2-hydroxypropyl)-1,2,4-oxadiazol-3-yl)-2-methylphenyl)imidazo[1,2-a]pyridine-3-carboxamide]
≤ 50	Cc1nc(-c2ccc(C)c(NC(=O)c3cnc4cc(Cl)ccn34)c2)no1 [Compound I-675]
≤ 50	Cc1ccc(-c2noc(-c3ccccc3)n2)cc1NC(=O)c1cnc2cc(COCCO)ccn12 [Compound I-719]
≤ 50	Cc1ccc(-c2noc([C@H]3C[C@@H]3F)n2)cc1NC(=O)c1cnn2cc(COCC(C)(C)O)ccc12 [Compound I-466, N-[5-[5-[(1R,2S)-2-fluorocyclopropyl]-1,2,4-oxadiazol-3-yl]-2-methyl-phenyl]-6-[(2-hydroxy-2-methylpropoxy)methyl]pyrazolo[1,5-a]pyridine-3-carboxamide]
≤ 50	COc1ccn2c(C(=O)Nc3cc(-c4noc(CC5CCCO5)n4)ccc3C)cnc2c1 (stereo not shown) [Compound I-582, 7-methoxy-N-(2-methyl-5-(5-((tetrahydrofuran-2-yl)methyl)-1,2,4-oxadiazol-3-yl)phenyl)imidazo[1,2-a]pyridine-3-carboxamide]
≤ 50	Cc1ccn2c(C(=O)Nc3cc(-c4noc(CCC(C)(O)C(F)(F)F)n4)ccc3C)cnc2c1 (single isomer, unassigned) [Compound I-515]
50 to 500	COc1ccn2c(C(=O)Nc3cc(-c4noc(C(C)O)n4)ccc3C)cnc2c1 (stereo not shown) [Compound I-742]
≤ 50	Cc1ccc(-c2noc(C[C@H](O)C(F)F)n2)cc1NC(=O)c1cnc2cc(OCC(C)(C)O)ccn12 [Compound I-576]
≤ 50	Cc1ccc(-c2noc([C@H]3C[C@@H]3F)n2)cc1NC(=O)c1cnc2cc(CCOCC(C)(C)O)ccn12 [Compound I-467, N-(5-(5-((1R,2S)-2-fluorocyclopropyl)-1,2,4-oxadiazol-3-yl)-2-methylphenyl)-7-(2-(2-hydroxy-2-methylpropoxy)ethyl)imidazo[1,2-a]pyridine-3-carboxamide]
50 to 500	Cc1ccc(-c2noc(CC(O)C3COC3)n2)cc1NC(=O)c1cnc2ccccn12 (stereo not shown) [Compound I-591]
≤ 50	Cc1ccc(-c2noc(C[C@H](O)C(F)F)n2)cc1NC(=O)c1cnc2cc(-c3ccn(C)n3)ccn12 [Compound I-555, (S)—N-(5-(5-(3,3-difluoro-2-hydroxypropyl)-1,2,4-oxadiazol-3-yl)-2-methylphenyl)-7-(1-methyl-1H-pyrazol-3-yl)imidazo[1,2-a]pyridine-3-carboxamide]
≤ 50	COc1ccn2c(C(=O)Nc3cc(-c4noc(CCC(C)(C)O)n4)ccc3C)cnc2c1 [Compound I-561, N-(5-(5-(3-hydroxy-3-methylbutyl)-1,2,4-oxadiazol-3-yl)-2-methylphenyl)-7-methoxyimidazo[1,2-a]pyridine-3-carboxamide]
50 to 500	COC(C)(C)COCc1ccn2c(C(=O)Nc3cc(-c4noc([C@H]5C[C@@H]5F)n4)ccc3C)cnc2c1 [Compound I-465]
50 to 500	CNCCOCc1ccn2c(C(=O)Nc3cc(-c4noc(C[C@H](O)C(F)F)n4)ccc3C)cnc2c1 [Compound I-593]
≤ 50	Cc1ccc(-c2noc([C@@H]3CC4(CC4)CN3)n2)cc1NC(=O)c1cnc2cc(F)ccn12 [Compound I-628, (S)—N-(5-(5-(5-azaspiro[2.4]heptan-6-yl)-1,2,4-oxadiazol-3-yl)-2-methylphenyl)-7-fluoroimidazo[1,2-a]pyridine-3-carboxamide]
50 to 500	Cc1ccc(-c2noc(CC(O)CN3CCOCC3)n2)cc1NC(=O)c1cnc2ccccn12 (stereo not shown) [Compound I-543]
≤ 50	Cc1ccc(-c2noc(C3CC(O)C3)n2)cc1NC(=O)c1cnc2cc(-c3ccn(C)n3)ccn12 (stereo not shown) [Compound I-727]

Structure (SMILES)	IC50 [nM]
Cc1ccc(-c2noc(CC(O)C(F)F)n2)cc1NC(=O)c1cnc2ccccn12 (stereo not shown) [Compound I-476]	≤ 50
